Experimental data as given in patent US6991778B2, “Use of dendrimers polyl-functionalized with nitroxide groups as contrast enhancing agents in MRI imaging of joints and injectable compositions comprising them” (Nitrosci, priority 1999, dated 2006).
Where two headings read alike, the source gives them in different places.

Experiments:
[1] = In vitro rate of nitroxide reduction by superoxide in the presence of a thiol (EPR); format: in vitro ADME; conditions: room temperature; nitroxide 50 micromolar, cysteine 200 micromolar, superoxide flux 10 micromolar/min, pH 7.4
From the text: In vitro rate of nitroxide reduction (Table 1) was undertaken using superoxide in the presence of a thiol, as an in vitro model for activated phagocytic cells. G. M. Rosen, B. E. Britigan, M. S. Cohen, S. P. Ellington and M. J. Barber, Biochim. Biophys. Acta, 969:236-241, 1988; G. M. Rosen and E. J. Rauckman. Biochem. Pharmacol. 26: 675-678, 1977; S. Pou, P. L. Davis, G. L. Wolf and G. M. Rosen, Free Rad. Res. 23: 353-364, 1995; and E. Finkelstein, G. M. Rosen and E. J. Rauckman, Biochim. Biophys. Acta, 802:90-98, 1984. For these determinations, nitroxides [S. Pou, et al, E. Finkelstein, et al., supra, and H. Kuthan, V. Ullrich and R. Estabrook, Biochem. J. 203: 551-558, 1982, (50 micromolar) were added to cysteine (200 micromolar) in the presence of a continued flux of superoxide (10 micromolar/min), generated by the action of xanthine oxidase on xanthine (400 micromolar) in Chelexed sodium phosphate buffer (50 mM, pH 7.4) The rate of superoxide production was estimated by following the superoxide dismutase (30 U/mL) inhibitable reduction of ferricytochrome c at […] using a molar absorbance of 21 mM^−1 cm^−1. H. Kuthan et al. supra. Rates of nitroxide reduction were monitored by EPR spectroscopy at ambient temperature by observing the change of the low-field (the broadened EPR spectrum of each dendrimer-linked nitroxide prevented the use of other peaks to measure rates of reduction) as a function of time.

[2] = Relaxivities (k1) of nitroxides and dendrimers; format: physicochemical; parameters: unit not given here; conditions: room temperature, 1.5 T
[3] = rabbit joints; Bacic, et al. 1997; cited from earlier work
[4] = rabbit; cited from earlier work
[5] = cited from earlier work
[6] = in vivo, iv; cited from earlier work
[7] = MRI of shoulder joints after intra-articular injection; format: in vivo, human; conditions: 1 mL of 100 μM solution into both shoulder joints, 1.5 Tesla
Protocol: Into both shoulder joints of a person (45-55 kg), with post-trauma chronic soreness in one of the shoulder joint is injected 1 mL of a stock 100 μM sterile solution in 0.9% normal saline of a dendrimer of Formula (I) containing 32 terminal PROXYL-3-carbamido nitroxide groups using a (gauge 25) needle. Then position the patent in a MR imager (1.5 Tesla MR system, SIGNA; General Electric Medical Systems, Milwaukee, Wis.) and obtain a scan of both joints in the conventional manner.

[8] = MRI of rabbit knee joint after intra-articular injection; format: in vivo; conditions: 1 mL of stock solution into rabbit knee joint
Protocol: Rabbits (2.8-3.5 kg) to be used for MRI experiments are sedated with intramuscular Ketamine and Xylazine. Anesthesia is maintained with i. v. sodium pentobarbital as required. Under fluoroscopic guidance, a needle (gauge 25) is placed into the knee joint of a thus-anesthetized rabbit and 1 mL of a stock solution of a nitroxyl functionalized dendrimer of Formula (I) containing 32 nitroxyl functionalizing groups. The rabbit's injected joint is then positioned in a MR imager.

Compound | Reduction Rate [1] [µM/min] | Relaxivity (k1) [2] | further results
DAB-dendrimer-(NH-3-CO-PROXYL)8 [[7]] | 0.00 | 1.69 | 
CC1(C)CC(C[N+](C)(C)C)C(C)(C)N1[O].[I-] (stereo not drawn) [3-trimethylaminomethyl-2,2,5,5-tetramethyl-1-pyrrolidinyloxyl iodide] |  |  | affinity toward proteoglycans [3]: high affinity; in vivo stability [4]: remarkable
DAB-dendrimer-(NH-3-CO-PROXYL)4 [[5]] | 7.93 | 0.82 | 
TREN-dendrimer-(NH-3-CO-PROXYL)3 [[6]] | 7.54 | 0.57 | 
O=C([O-])CN(CCN(CC(=O)[O-])CC(=O)O)CCN(CC(=O)[O-])CC(=O)O.[Gd+3] [Gd(DTPA), gadolinium (Gd)-DTPA] |  | 4.94 | relaxivity ([5]; as reported by Keana, et al.): 4.95 mM⁻¹ s⁻¹; relaxivity ([5]; room temperature, 1.5 T): ca. 5; equilibration throughout the cartilage [6]: ca. 5 hr
DAB-dendrimer-(NH-3-CO-PROXYL)16 [[8]] | 0.00 | 3.19 | 
CC1(C)CC(C(=O)O)C(C)(C)N1[O] (stereo not drawn) [[1], 3-carboxy-2,2,5,5-tetramethyl-1-pyrrolidinyloxyl, reference compound] | 0.52 | 0.19 | 
DAB-dendrimer-(NH-3-CO-PROXYL)32 [[9]] | 0.00 | 5.73 | status of the articular cartilage in the MR image [7]: readily identifiable; articular cartilage in the MR image [8]: readily identifiable
DAB-dendrimer-(NH-3-CH2-PROXYL)4 [[15]] |  | 0.82 | 
